In the CheMixHub viscosity set:

Test: xn = mol fraction of the nth substance listed

CCCCC(C)=O + CC(=O)CC(C)C
298.15 K, 101 kPa
Conditions	viscosity [mPa·s]
x2 = 0.1164	0.581
x2 = 0.2196	0.575
x2 = 0.3357	0.571
x2 = 0.4413	0.566
x2 = 0.5503	0.562
x2 = 0.6632	0.558
x2 = 0.7765	0.553
x2 = 0.8841	0.548

ClC(Cl)=C(Cl)Cl + Cc1ccccc1
303.15 K, 101 kPa
Conditions	viscosity [mPa·s]
x1 = 0.1502	0.551
x1 = 0.2552	0.574
x1 = 0.2612	0.574
x1 = 0.3392	0.597
x1 = 0.3745	0.599
x1 = 0.4608	0.621
x1 = 0.4715	0.629
x1 = 0.5666	0.662
x1 = 0.5759	0.652
x1 = 0.6428	0.691
x1 = 0.6834	0.688
x1 = 0.6905	0.708
x1 = 0.7448	0.706
x1 = 0.7529	0.73
x1 = 0.8376	0.76
x1 = 0.8395	0.738
x1 = 0.9336	0.793

O=[N+]([O-])c1ccccc1 + CCCCCC
Conditions	viscosity [mPa·s]
293.17 K, 101.32 kPa, x1 = 0.183	0.408
293.27 K, 101.32 kPa, x1 = 0.453	0.761
293.65 K, 101.32 kPa, x1 = 0.419	0.697
293.66 K, 101.32 kPa, x1 = 0.732	1.09
293.77 K, 101.32 kPa, x1 = 0.287	0.552
293.77 K, 101.32 kPa, x1 = 0.36	0.552
294.1 K, 101.32 kPa, x1 = 0.559	0.799
294.57 K, 101.32 kPa, x1 = 0.183	0.4
294.75 K, 101.32 kPa, x1 = 0.419	0.651
294.75 K, 101.32 kPa, x1 = 0.629	0.881
294.85 K, 101.32 kPa, x1 = 0.453	0.692
295.17 K, 101.32 kPa, x1 = 0.287	0.54
295.17 K, 101.32 kPa, x1 = 0.36	0.54
295.88 K, 101.32 kPa, x1 = 0.732	1.05
296.05 K, 101.32 kPa, x1 = 0.559	0.775
296.3 K, 101.32 kPa, x1 = 0.183	0.395
296.4 K, 101.32 kPa, x1 = 0.453	0.665
296.45 K, 101.32 kPa, x1 = 0.629	0.861
296.57 K, 101.32 kPa, x1 = 0.287	0.529
296.57 K, 101.32 kPa, x1 = 0.36	0.529
296.85 K, 101.32 kPa, x1 = 0.419	0.621
297.45 K, 101.32 kPa, x1 = 0.732	1.03
298.07 K, 101.32 kPa, x1 = 0.559	0.747
298.15 K, 101.32 kPa, x1 = 0.36	0.516
298.25 K, 101.32 kPa, x1 = 0.287	0.516
298.25 K, 101.32 kPa, x1 = 0.629	0.836
298.35 K, 101.32 kPa, x1 = 0.419	0.605
298.55 K, 101.32 kPa, x1 = 0.453	0.645
303.15 K, 101 kPa, x2 = 0.072	1.319
303.15 K, 101 kPa, x2 = 0.148	1.016
303.15 K, 101 kPa, x2 = 0.246	0.8236
303.15 K, 101 kPa, x2 = 0.318	0.6679
303.15 K, 101 kPa, x2 = 0.391	0.5916
303.15 K, 101 kPa, x2 = 0.51	0.4845
303.15 K, 101 kPa, x2 = 0.618	0.4107
303.15 K, 101 kPa, x2 = 0.735	0.3659
303.15 K, 101 kPa, x2 = 0.862	0.3216

O=[N+]([O-])c1ccccc1 + CS(C)=O
viscosity [mPa·s], 101 kPa
Conditions	x2 = 0.1	x2 = 0.2	x2 = 0.3	x2 = 0.4	x2 = 0.5	x2 = 0.6	x2 = 0.7	x2 = 0.8	x2 = 0.9
298.15 K	1.851	1.877	1.903	1.927	1.946	1.962	1.975	1.985	1.993
308.15 K	1.569	1.586	1.605	1.623	1.639	1.653	1.662	1.665	1.664
318.15 K	1.333	1.349	1.353	1.377	1.388	1.396	1.402	1.403	1.4

CCCCCO + CCCCCC
viscosity [mPa·s], 101 kPa
Conditions	298.15 K	313.15 K
x1 = 0.0122	0.302	–
x1 = 0.0218	0.305	–
x1 = 0.0272	0.307	–
x1 = 0.0424	0.312	–
x1 = 0.0642	0.321	–
x1 = 0.0706	0.324	–
x1 = 0.0889	0.333	–
x1 = 0.0978	0.337	–
x1 = 0.124	0.35	–
x1 = 0.1377	0.357	–
x1 = 0.1474	0.362	–
x1 = 0.1677	0.371	0.318
x1 = 0.1838	0.382	–
x1 = 0.1966	0.39	–
x1 = 0.2033	0.395	–
x1 = 0.2353	0.423	0.356
x1 = 0.3342	0.518	0.427
x1 = 0.4494	0.677	0.545
x1 = 0.5434	0.874	0.668
x1 = 0.6407	1.19	0.893
x1 = 0.7344	1.555	1.134
x1 = 0.8437	2.164	1.5
x1 = 0.9129	2.715	1.843
